Results: the NIST ThermoML archive (doi:10.1021/acs.jced.5b00259)
± gives the expanded uncertainty stated by the source.

Legend:
[1] = 100 kPa, Liquid
[2] = xn = mol fraction of the nth substance listed; conditions: 100 kPa, Liquid, x2 = 0

CC[NH+]=C(N(C)C)N(C)C.O=S(=O)([N-]S(=O)(=O)C(F)(F)F)C(F)(F)F
[1]
Conditions | mass density [kg/m3] | viscosity [mPa·s]
293.15 K | 1414.89 ± 12 | 74.61 ± 5.5
298.15 K | 1410.03 ± 12 | 58.86 ± 2.3
303.15 K | 1405.19 ± 12 | 47.27 ± 2.3
308.15 K | 1400.38 ± 12 | 38.71 ± 1.8
313.15 K | 1395.59 ± 12 | 32.2 ± 1.5
318.15 K | 1390.8 ± 12 | 27.09 ± 1.3
323.15 K | 1386.03 ± 12 | 23.14 ± 1.1

CCOS(=O)(=O)[O-].CC[NH+]=C(N(C)C)N(C)C [2-ethyl-1,1,3,3-tetramethylguanidinium ethyl sulfate]
[1]
Conditions | mass density [kg/m3] | viscosity [mPa·s]
293.15 K | 1170.76 ± 1.5 | 673.4 ± 300
298.15 K | 1167.24 ± 1.5 | 441.5 ± 170
303.15 K | 1163.76 ± 1.5 | 302.5 ± 95
308.15 K | 1160.28 ± 1.5 | 214.6 ± 54
313.15 K | 1156.8 ± 1.4 | 157.2 ± 31
318.15 K | 1153.33 ± 1.4 | 118.3 ± 18
323.15 K | 1149.87 ± 1.4 | 91.22 ± 9.6

CCO [ethanol]
[1]
Conditions | mass density [kg/m3] | viscosity [mPa·s]
293.15 K | 789.62 ± 0.46 | 1.177 ± 0.047
298.15 K | 785.25 ± 0.47 | 1.071 ± 0.043
303.15 K | 780.89 ± 0.47 | 0.978 ± 0.04
308.15 K | 776.52 ± 0.48 | 0.895 ± 0.036
313.15 K | 772.12 ± 0.49 | 0.822 ± 0.033
318.15 K | 767.71 ± 0.49 | 0.756 ± 0.031
323.15 K | 763.26 ± 0.5 | 0.698 ± 0.028

CCO [ethanol] + CCOS(=O)(=O)[O-].CC[NH+]=C(N(C)C)N(C)C
[2]
Conditions | mass density [kg/m3] | viscosity [mPa·s]
293.15 K | 789.62 ± 0.46 | 1.177 ± 0.047
298.15 K | 785.25 ± 0.47 | 1.071 ± 0.043
303.15 K | 780.89 ± 0.47 | 0.978 ± 0.04
308.15 K | 776.52 ± 0.48 | 0.895 ± 0.036
313.15 K | 772.12 ± 0.49 | 0.822 ± 0.033
318.15 K | 767.71 ± 0.49 | 0.756 ± 0.031
323.15 K | 763.26 ± 0.5 | 0.698 ± 0.028

CCO [ethanol] + CC[NH+]=C(N(C)C)N(C)C.O=S(=O)([N-]S(=O)(=O)C(F)(F)F)C(F)(F)F
[2]
Conditions | mass density [kg/m3] | viscosity [mPa·s]
293.15 K | 789.62 ± 0.46 | 1.177 ± 0.047
298.15 K | 785.25 ± 0.47 | 1.071 ± 0.043
303.15 K | 780.89 ± 0.47 | 0.978 ± 0.04
308.15 K | 776.52 ± 0.48 | 0.895 ± 0.036
313.15 K | 772.12 ± 0.49 | 0.822 ± 0.033
318.15 K | 767.71 ± 0.49 | 0.756 ± 0.031
323.15 K | 763.26 ± 0.5 | 0.698 ± 0.028

CCCO [propan-1-ol]
[1]
Conditions | mass density [kg/m3] | viscosity [mPa·s]
293.15 K | 803.49 ± 0.43 | 2.164 ± 0.087
298.15 K | 799.49 ± 0.44 | 1.948 ± 0.078
303.15 K | 795.46 ± 0.45 | 1.707 ± 0.069
308.15 K | 791.39 ± 0.45 | 1.525 ± 0.061
313.15 K | 787.29 ± 0.46 | 1.366 ± 0.055
318.15 K | 783.14 ± 0.46 | 1.228 ± 0.05
323.15 K | 778.93 ± 0.47 | 1.107 ± 0.045

CCCO [propan-1-ol] + CCOS(=O)(=O)[O-].CC[NH+]=C(N(C)C)N(C)C
[2]
Conditions | mass density [kg/m3] | viscosity [mPa·s]
293.15 K | 803.49 ± 0.43 | 2.164 ± 0.17
298.15 K | 799.49 ± 0.44 | 1.948 ± 0.16
303.15 K | 795.46 ± 0.45 | 1.707 ± 0.14
308.15 K | 791.39 ± 0.45 | 1.525 ± 0.12
313.15 K | 787.29 ± 0.46 | 1.366 ± 0.11
318.15 K | 783.14 ± 0.46 | 1.228 ± 0.099
323.15 K | 778.93 ± 0.47 | 1.107 ± 0.089

CCCO [propan-1-ol] + CC[NH+]=C(N(C)C)N(C)C.O=S(=O)([N-]S(=O)(=O)C(F)(F)F)C(F)(F)F
[2]
Conditions | mass density [kg/m3] | viscosity [mPa·s]
293.15 K | 803.49 ± 0.43 | 2.164 ± 0.087
298.15 K | 799.49 ± 0.44 | 1.948 ± 0.078
303.15 K | 795.46 ± 0.45 | 1.707 ± 0.069
308.15 K | 791.39 ± 0.45 | 1.525 ± 0.061
313.15 K | 787.29 ± 0.46 | 1.366 ± 0.055
318.15 K | 783.14 ± 0.46 | 1.228 ± 0.05
323.15 K | 778.93 ± 0.47 | 1.107 ± 0.045
